Earlier results on 1 compound are cited in patent US20060135507A1, “Therapeutic agent for overactive bladder involved in aging” (priority 2004, published 2006).

The test system of data set [1] is rat with overactive bladder caused by cerebrovascular disease.
The test system of data set [2] is human with overactive bladder caused by cerebrovascular disease.

SMILES strings stand for the structures.

Regarding `COc1ccc(C(=O)N2CCCC2=O)cc1` [Aniracetam], the micturition reflex result in data set [1] and in data set [2] was “suppression of micturition reflex is observed” throughout.
